Measured values taken from patent publication US20170153247A1, “METHOD FOR RISK ASSESSMENT OF ALLERGIC REACTION” (Excelsior Bio-System Incorporation, priority 2015, published 2017).

Tests used:
[1] = tested on: binding between IgE in serum sample U and crab antigens; assay: IgE inhibition experiment, conventional protein array spotted with crab antigens; design: species or system human
Protocol: (§1) The sample serum is diluted with diluent buffer containing adequate amount of BSA, no-fat milk, and Tween-20. The peptide array of the present embodiment is incubated with each serum sample respectively at 37° C. for 1 hour. A wash buffer containing Tween-20 is added to the reaction area of the peptide array to wash out extra serum. Anti-human IgE antibody labeled with Cy3 is added to the reaction area of the peptide array. The anti-human IgE with Cy3 binds on antibodies in the sample serum that binds to the peptide probes in the reaction area. The peptide array is then incubated
(§2) at 37° C. for 1 hour in darkness. The diluent, wash buffer, and anti-human IgE with Cy3 is provided by EBS Immunoflourescence Specific IgE Assay. A laser scanner with FD532 nm detector is utilized to scan the peptide array after incubation. The intensities of FD532 nm of each peptide probe on the peptide array can be obtained. For protein arrays the positive values are highlighted, while for peptide arrays the numbers (No.) of the peptide probes showing positive values are listed. […] For the peptide array of the present embodiment, although all of the peptide probes are derived from antigens of house dust mites, only a number of probes are bound to the serum samples and generate positive results.
(§3) Generally, the serum sample U is incubated with different concentration Der-p10-17 peptide (#60) for 30 minutes, and then serum sample U is transferred on conventional protein arrays spotted with crab, shrimp, dust mite and house dust mite antigens. In each of these arrays, different reaction blocks represent serum sample U incubated with different concentrations of Der-p10-17 (#60), where X1 is serum sample U incubated with the original concentration of Der-p10-17 (#60). X2 is serum sample U incubated with 2-fold dilution of the original concentration, X4 is serum sample U incubated with a 4-fold dilution and X8 is serum sample U incubated with an 8-fold dilution. The experiment protocol in Table 5A-5D and FIGS. 12A-12D may refer to the IgE immunofluorescence assay used in Table 4. The F532 nm intensity value of crabs, shrimps, dust mites, and house mites are shown respectively. Various concentrations of Der-p10-17 peptide (#60) are tested to evaluate the dependence of inhibition on the inhibitor peptide concentration. The results of the IgE inhibition experiments are presented in FIGS. 12A-12D and Tables 5A-5D.

[2] = tested on: binding between IgE in serum sample U and house dust mite antigens; assay: IgE inhibition experiment, conventional protein array spotted with house dust mite antigens; design: species or system human
Protocol: (§4) The sample serum is diluted with diluent buffer containing adequate amount of BSA, no-fat milk, and Tween-20. The peptide array of the present embodiment is incubated with each serum sample respectively at 37° C. for 1 hour. A wash buffer containing Tween-20 is added to the reaction area of the peptide array to wash out extra serum. Anti-human IgE antibody labeled with Cy3 is added to the reaction area of the peptide array. The anti-human IgE with Cy3 binds on antibodies in the sample serum that binds to the peptide probes in the reaction area. The peptide array is then incubated at 37° C. for 1 hour in darkness. The diluent, wash buffer, and anti-human IgE with Cy3 is provided by EBS Immunoflourescence Specific IgE Assay. A laser scanner with FD532 nm detector is utilized to scan the peptide array after incubation. The intensities of FD532 nm of each peptide probe on the peptide array can be obtained. For protein arrays the positive values are highlighted, while for peptide arrays the numbers (No.) of the peptide probes showing positive values are listed. […] For the peptide array of the present embodiment, although all of the peptide probes are derived from antigens of house dust mites, only a number of probes are bound to the serum samples and generate positive results. Generally, the serum sample U is incubated with different concentration Der-p10-17 peptide (#60) for 30 minutes, and then serum sample U is transferred on conventional protein arrays spotted with crab, shrimp, dust mite and house dust mite antigens. In each of these arrays, different reaction blocks represent serum sample U incubated with different concentrations of Der-p10-17 (#60), where X1 is serum sample U incubated with the original concentration of Der-p10-17 (#60). X2 is serum sample U incubated with 2-fold dilution of the original concentration, X4 is serum sample U incubated with a 4-fold dilution and X8 is serum sample U incubated with an 8-fold dilution. The experiment protocol in Table 5A-5D and FIGS. 12A-12D may refer to the IgE immunofluorescence assay used in Table 4. The […] nm intensity value of crabs, shrimps, dust mites, and house mites are shown respectively. Various concentrations of Der-p10-17 peptide (#60) are tested to evaluate the dependence of inhibition on the inhibitor peptide concentration. The results of the IgE inhibition experiments are presented in FIGS. 12A-12D and Tables 5A-5D.

[3] = tested on: binding between IgE in serum sample U and dust mite antigens; assay: IgE inhibition experiment, conventional protein array spotted with dust mite antigens; design: species or system human
Protocol: as §4

[4] = tested on: specific IgE in serum samples; assay: Serum samples analysis on peptide array (IgE immunofluorescence assay); format: binding, human
Description: A plurality of peptide probes are synthesized according to each of the above peptide fragments of Der p1, Der p2, and Der p10. Theses synthesized peptide probes are spotted on a solid surface to construct a peptide array. The peptide array includes at least one reaction area, and each reaction area includes at least one reaction block. […] The peptide array of FIG. 11 includes at least one reaction area, and each reaction area includes 4 reaction blocks, namely R1, R2, R3, and R4.
Serum samples are used and labeled to evaluate the peptide array of the present embodiment. The labeled serum samples include 23 positive serum samples obtained from patients showing allergy symptoms, one negative serum sample, and one blank. Conventional protein arrays are also used in the test, probes for which being allergens extracted from allergenic substances derived from natural origins, such as crabs, shrimps, dust mites (Dermatophagoides farinae), house dust mites and storage mites (Blomia tropicalis). Group 10 allergens (tropomyosins) have been assumed to be a major cause of cross-reactivity between house dust mites and other invertebrates.
The sample serum is diluted with diluent buffer containing adequate amount of BSA, no-fat milk, and Tween-20. The peptide array of the present embodiment is incubated with each serum sample respectively at 37° C. for 1 hour. […]

[5] = tested on: binding between IgE in serum sample U and shrimp antigens; assay: IgE inhibition experiment, conventional protein array spotted with shrimp antigens; design: species or system human
Protocol: as §1, §2, §3

[6] = Block 2-X8, serum sample U pre-incubated 30 minutes with 8-fold dilution of peptide
[7] = Block 3-X4, 4-fold dilution of peptide
[8] = Block 4-X2, 2-fold dilution of peptide
[9] = Block 5-X1, original concentration of peptide

In the case of ELDQTFAELTGY [Der-p10-17], the “F532 nm intensity value, crabs” value ([1]; Block 2-X8) is reported as 14893, the “F532 nm intensity value, crabs” value [1, 6] is reported as 15148 and the “F532 nm intensity value, crabs” value ([1]; Block 3-X4, serum sample U pre-incubated with 4-fold dilution of peptide) is reported as 11803. The “F532 nm intensity value, crabs” value ([1]; Block 4-X2, serum sample U pre-incubated with 2-fold dilution of peptide) was 10695, the “F532 nm intensity value, crabs” value ([1]; Block 5-X1, serum sample U pre-incubated with original concentration of peptide) was 13067 and the “inhibition of IgE cross-linking / decrease of intensity values, crab” value ([1]; serum sample U) was “can inhibit the IgE cross-linking between shrimp and crab”. The “F532 nm intensity value, house dust mites” value [2, 6] was 3288, the “F532 nm intensity value, house dust mites” value [2, 7] was 3247 and the “F532 nm intensity value, house dust mites” value [2, 8] was 3659. For the same sequence, the “F532 nm intensity value, house dust mites” value [2, 9] was 4288, the “inhibition of binding between IgE and antigens extracted from natural house dust mites” value ([2]; serum sample U) was “can inhibit the binding between IgE and antigens extracted from natural house dust mites” and the “F532 nm intensity value, dust mites” value ([3]; Block 2-X8) was 5767. The “F532 nm intensity value, dust mites” value [3, 6] was 5979, the “F532 nm intensity value, dust mites” value [3, 7] was 4767 and the “F532 nm intensity value, dust mites” value [3, 8] was 4428. For the same sequence, the “F532 nm intensity value, dust mites” value [3, 9] was 5475, the “binding of peptide probe to IgE in serum samples” value ([4]; peptide array) was “can bind to IgE in serum samples” and the “reactivity of serum sample U on the peptide array” value ([4]; serum sample U, Table 4) was “reactive”. The “F532 nm intensity value, shrimps” value ([5]; Block 2-X8) was 16678, the “F532 nm intensity value, shrimps” value [5, 6] was 17902 and the “F532 nm intensity value, shrimps” value [5, 7] was 14759. For the same sequence, the “F532 nm intensity value, shrimps” value [5, 8] was 14481, the “F532 nm intensity value, shrimps” value [5, 9] was 15396 and the “inhibition of IgE cross-linking / decrease of intensity values, shrimp” value ([5]; serum sample U) was “can inhibit the IgE cross-linking between shrimp and crab”.
